For 24 compounds, IC50 results are on record in patent US8580812B2, “Heteroaryl amide analogues as P2X7 antagonists” (H. Lundbeck A/S, priority 2007, dated 2013).

SMILES strings stand for the structures.

The assay has as its target T1, P2X7 (Homo sapiens, UniProt Q99572).
T1 construct: host or cells: SH-SY5Y
T1 sequence (Q99572 1-595): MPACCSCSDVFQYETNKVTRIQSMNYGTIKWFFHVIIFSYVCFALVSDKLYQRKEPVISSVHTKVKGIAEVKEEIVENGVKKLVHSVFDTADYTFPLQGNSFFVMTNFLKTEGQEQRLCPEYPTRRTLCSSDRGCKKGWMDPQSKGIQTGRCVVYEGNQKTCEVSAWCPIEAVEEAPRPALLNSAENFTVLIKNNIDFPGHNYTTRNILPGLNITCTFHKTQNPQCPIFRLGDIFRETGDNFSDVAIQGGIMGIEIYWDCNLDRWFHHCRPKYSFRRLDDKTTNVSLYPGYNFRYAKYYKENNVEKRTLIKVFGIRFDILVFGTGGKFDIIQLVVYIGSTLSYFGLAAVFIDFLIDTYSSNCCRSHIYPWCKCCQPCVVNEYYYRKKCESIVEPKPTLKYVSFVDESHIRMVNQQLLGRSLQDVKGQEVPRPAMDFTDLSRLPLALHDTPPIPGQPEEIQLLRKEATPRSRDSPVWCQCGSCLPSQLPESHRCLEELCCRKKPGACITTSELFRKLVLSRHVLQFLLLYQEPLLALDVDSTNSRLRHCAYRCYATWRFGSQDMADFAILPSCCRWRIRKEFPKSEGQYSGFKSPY
Nature of the assay: High Throughput P2X7 Calcium Mobilization Assay (Example 4A), antagonist activity. The assay is classed as cell-based. The note with it: SH-SY5Y cells, 50% decrease in fluorescence response of cells exposed to 80 μM BzATP. The protocol:
A. High Throughput P2X7 Calcium Mobilization Assay
SH-SY5Y cells, ATCC Number CRL-2266, (American Type Culture Collection, Manassas, Va.) are cultured under DMEM/High medium supplemented with 10% FBS, and 10 mM HEPES (Invitrogen Corp., Carlsbad, Calif.) in 5% CO2 and at 37° C. One day prior to the experiment, cells are plated at a density of 100,000 cells/well in a 96 well black/clear TC plate (Corning® Costar®, Sigma-Aldrich Co., St. Louis, Mo.). At the beginning of the experiment, the culture medium is removed and cells are incubated with 50 μL of 2.3 μM Fluo-4 AM dye (Invitrogen Corp.) in the assay solution (5 mM KCl, 9.6 mM NaH2PO4.H2O, 25 mM HEPES, 280 mM Sucrose, 5 mM Glucose, and 0.5 mM CaCl2; pH is adjusted to 7.4 with NaOH) for an hour at 37° C. After one hour dye incubation, wells are rinsed once with 50 μL assay solution, and are then incubated for an hour at room temperature with 100 μL assay solution containing the test compound. The final concentration of test compound generally ranges from 1 to 2500 nM; for positive control cells, no test compound is added. After the one hour incubation, plates are transferred to a FLIPR^TETRA instrument (Molecular Devices, Sunnyvale, Calif.) for calcium mobilization analysis.
For determination of antagonist activity, 50 μL of P2X7 agonist (2′(3′)-O-(4-benzoyl-benzoyl)adenosine 5′-triphosephate (BzATP; Sigma-Aldrich) in the assay solution is transferred using the FLIPR into the plate, such that the final agonist concentration is 80 μM (about EC50). In negative control cells, 50 μL of assay solution without agonist is added at this stage. The peak fluorescence signal over a 2 minute period is then measured.
First, the average maximum relative fluorescent unit (RFU) response from the negative control wells (no agonist) is subtracted from the maximum response detected for each of the other experimental wells. Second, average maximum RFU response is calculated for the positive control wells (agonist wells). Then, percent inhibition for each compound tested is calculated using the equation: Percent Inhibition=100−100×(Peak Signal in Test Cells/Peak Signal in Control Cells) The % inhibition data is plotted as a function of test compound concentration and test compound IC50 is determined using, for example, KALEIDAGRAPH software (Synergy Software, Reading, Pa.) best fit of the data to the equation: y=m1*(1/(1+(m2/m0)^m3)) where y is the percent inhibition, m0 is […], m1 is the maximum RFU, m2 corresponds to the test compound IC50 (the concentration required to provide a 50% decrease, relative to the response observed in the presence of agonist and without antagonist) and m3 is the Hill coefficient.
In general terms: A change in cytosolic calcium serves as a functional read-out for many receptors and channels.
As usually defined, the IC50 is the midpoint of a concentration-inhibition curve. On to `CN(C(=O)c1cc2c(C(=O)NCC34CC5CC(CC(C5)C3)C4)cccn2n1)C1CCOC1` (stereo not drawn) [Compound 28, 4-N-(adamantan-1-ylmethyl)-2-N-methyl-2-N-(tetrahydrofuran-3-yl)pyrazolo[1,5-a]pyridine-2,4-dicarboxamide], for which the concentration for half-maximal inhibition (IC50) was no more than 2000 nM.
Take `O=C(NCC12CC3CC(CC(C3)C1)C2)c1cccn2nc(CN3CCn4cncc4C3)cc12` [Compound 52, N-(adamantan-1-ylmethyl)-2-(5,6-dihydroimidazo[1,5-a]pyrazin-7(8H)-ylmethyl)pyrazolo[1,5-a]pyridine-4-carboxamide]: the IC50 was no more than 2000 nM.
For the compound `CC(CC(=O)O)c1cc2c(C(=O)NCC34CC5CC(CC(C5)C3)C4)cccn2n1` (stereo not drawn) [Compound 105, 3-{4-[(adamantan-1-ylmethyl)carbamoyl]pyrazolo[1,5-a]pyridin-2-yl}butanoic acid], the 50% inhibitory concentration (IC50) is no more than 2000 nM.
As for `CN(Cc1ccccn1)Cc1cc2c(C(=O)NCC34CC5CC(CC(C5)C3)C4)cccn2n1` [Compound 53, N-(adamantan-1-ylmethyl)-2-{[methyl(pyridin-2-ylmethyl)amino]methyl} pyrazolo[1,5-a]pyridine-4-carboxamide], the concentration for half-maximal inhibition (IC50) is no more than 2000 nM.
In the case of `CN(CCF)C(=O)Cc1cc2c(C(=O)NCC34CC5CC(CC(C5)C3)C4)cccn2n1` [Compound 77, N-(adamantan-1-ylmethyl)-2-{2-[(2-fluoroethyl)(methyl)amino]-2-oxoethyl}pyrazolo[1,5-a]pyridine-4-carboxamide], the IC50 was no more than 2000 nM.
The value for `O=C(NCC12CC3CC(CC(C3)C1)C2)c1cccn2nc(CC(=O)N3CCOCC3)cc12` [Compound 25, N-(adamantan-1-ylmethyl)-2-(2-morpholin-4-yl-2-oxoethyl)pyrazolo[1,5-a]pyridine-4-carboxamide] was no more than 2000 nM; that for `CN(CC(F)(F)F)C(=O)Cc1cc2c(C(=O)NCC34CC5CC(CC(C5)C3)C4)cccn2n1` [Compound 79, N-(adamantan-1-ylmethyl)-2-{2-[methyl(2,2,2-trifluoroethyl)amino]-2-oxoethyl}pyrazolo[1,5-a]pyridine-4-carboxamide] was no more than 2000 nM.
Turning to `CN(CCF)C(=O)c1cc2c(C(=O)NCC34CC5CC(CC(C5)C3)C4)cccn2n1` [Compound 74, 4-N-(adamantan-1-ylmethyl)-2-N-(2-fluoroethyl)-2-N-methylpyrazolo[1,5-a]pyridine-2,4-dicarboxamide], the IC50 was no more than 2000 nM.
For `CC(C)CC(CNC(=O)c1cccn2nc(C(=O)N(C)CCF)cc12)c1ccc(Cl)cc1` (stereo not drawn) [Compound 92, Pyrazolo[1,5-a]pyridine-2,4-dicarboxylic acid 4-{[2-(4-chloro-phenyl)-4-methyl-pentyl]-amide} 2-[(2-fluoro-ethyl)-methyl-amide]] the value was no more than 2000 nM.
On to `CC(C)CC(CNC(=O)c1cccn2nc(C(=O)N3[C@H](C)COC[C@@H]3C)cc12)c1ccc(C(F)(F)F)cc1` (single isomer, unassigned) [Compound 102], for which the half-inhibitory concentration (IC50) was no more than 2000 nM.
Regarding `CN(CCF)C(=O)c1cc2c(C(=O)NCC3(c4ccc(C(F)(F)F)cc4)CCCCC3)cccn2n1` [Compound 93, Pyrazolo[1,5-a]pyridine-2,4-dicarboxylic acid 2-[(2-fluoro-ethyl)-methyl-amide]-4-{[1-(4-trifluoromethyl-phenyl)-cyclohexylmethyl]-amide}], the IC50 is no more than 2000 nM.
For `CN(Cc1cnccn1)Cc1cc2c(C(=O)NCC34CC5CC(CC(C5)C3)C4)cccn2n1` [Compound 55, N-(adamantan-1-ylmethyl)-2-{[methyl(pyrazin-2-ylmethyl)amino]methyl} pyrazolo[1,5-a]pyridine-4-carboxamide], the concentration for half-maximal inhibition (IC50) is no more than 2000 nM.
`O=C(CC12CC3CC(CC(C3)C1)C2)Nc1cccn2nc(C(=O)N3CCn4cncc4C3)cc12` [Compound 97, 2-adamantan-1-yl-N-[2-(5,6-dihydroimidazo[1,5-a]pyrazin-7(8H)-ylcarbonyl)pyrazolo [1,5-a]pyridin-4-yl]acetamide]: the half-inhibitory concentration (IC50) is no more than 2000 nM.
Turning to `O=C(NCC(F)F)c1cc2c(C(=O)NCC34CC5CC(CC(C5)C3)C4)cccn2n1` [Compound 63, 4-N-(adamantan-1-ylmethyl)-2-N-(2,2-difluoroethyl)pyrazolo [1,5-a]pyridine-2,4-dicarboxamide], the IC50 was no more than 2000 nM.
Take `N[C@@H]1CCN(C(=O)c2cc3c(NC(=O)CC45CC6CC(CC(C6)C4)C5)cccn3n2)C1` [Compound 99, 2-adamantan-1-yl-N-(2-{[(3R)-3-aminopyrrolidin-1-yl]carbonyl}pyrazolo [1,5-a]pyridin-4-yl)acetamide]: the IC50 is no more than 2000 nM.
The value for `CC(C)CC(CNC(=O)c1cccn2nc(C(=O)N3CCOCC3)cc12)c1ccc(Cl)cc1` (stereo not drawn) [Compound 91, N-[2-(4-chlorophenyl)-4-methylpentyl]-2-(morpholin-4-ylcarbonyl)pyrazolo [1,5-a]pyridine-4-carboxamide] was no more than 2000 nM.
On to `CN(C(=O)c1cc2c(C(=O)NCC34CC5CC(CC(C5)C3)C4)cccn2n1)c1ccccn1` [Compound 19, 4-N-(adamantan-1-ylmethyl)-2-N-methyl-2-N-pyridin-2-ylpyrazolo[1,5-a]pyridine-2,4-dicarboxamide], for which the IC50 was no more than 2000 nM.
With `O=C(NCC1(c2ccc(Cl)cc2)CCCCC1)c1cccn2nc(C(=O)N3CCOCC3)cc12` [Compound 84, N-{[1-(4-chlorophenyl)cyclohex-yl]methyl}-2-(morpholin-4-ylcarbonyl)pyrazolo [1,5-a]pyridine-4-carboxamide], the concentration for half-maximal inhibition (IC50) is no more than 2000 nM.
For `CC(C)CC(CNC(=O)c1cccn2nc(C(=O)N3CC[C@@H](N)C3)cc12)c1ccccc1` (stereo partly drawn) [Compound 45, 2-{[(3R)-3-aminopyrrolidin-1-yl]carbonyl}-N-(4-methyl-2-phenylpentyl)pyrazolo [1,5-a]pyridine-4-carboxamide] the value was no more than 2000 nM; for `CN(C)[C@@H]1CCN(C(=O)c2cc3c(C(=O)NCC45CC6CC(CC(C6)C4)C5)cccn3n2)C1` [Compound 27, N-(adamantan-1-ylmethyl)-2-{[(3R)-3-(dimethylamino)pyrrolidin-1-yl]carbonyl}pyrazolo [1,5-a]pyridine-4-carboxamide], no more than 2000 nM; for `CC(C)CC(CNC(=O)c1cccn2nc(C(=O)N3CCOCC3)cc12)c1ccc(C(F)(F)F)cc1` (stereo not drawn) [Compound 87, N-{4-methyl-2-[4-(trifluoromethyl)phenyl]pentyl}-2-(morpholin-4-ylcarbonyl)pyrazolo [1,5-a]pyridine-4-carboxamide], no more than 2000 nM.
The value for `NC(=O)c1ccc(-c2cc3c(C(=O)NCC45CC6CC(CC(C6)C4)C5)cccn3c2)cc1` [Compound 112, N-(adamantan-1-ylmethyl)-2-(4-carbamoylphenyl) indolizine-8-carboxamide] was no more than 2000 nM.
As to `CN(C(=O)c1cc2c(C(=O)NCC34CC5CC(CC(C5)C3)C4)cccn2n1)C1CCOCC1` [Compound 37, 4-N-(adamantan-1-ylmethyl)-2-N-methyl-2-N-(tetrahydro-2H-pyran-4-yl)pyrazolo[1,5-a]pyridine-2,4-dicarboxamide], the IC50 was no more than 2000 nM.
The value for `O=C1NCC2(CCN(C(=O)c3cc4c(C(=O)NCC56CC7CC(CC(C7)C5)C6)cccn4n3)CC2)O1` [Compound 36, N-(adamantan-1-ylmethyl)-2-[(2-oxo-1-oxa-3,8-diazaspiro[4.5]dec-8-yl)carbonyl]pyrazolo [1,5-a]pyridine-4-carboxamide] was no more than 2000 nM.
